Data reported in patent publication US9867862B2, “Compounds and method for treating or preventing disease conditions associated with alpha-1-antitrypsin” (AMICUS THERAPEUTICS, INC., priority 2010, dated 2018).
One block for each compound: values may come before it. Peptide text beside a SMILES is read from it.

Assays:
[1] = target: T1, ZAT (Homo sapiens, UniProt P01009, E366K); conditions: background studies; cited from earlier work
[2] = target: T1, ZAT; test: In vitro polymerization assay (native gel, western blot); format: biochemical; conditions: FIG. 3 western blot; peptides at 1 mM with Z-AT, 4 hours 37° C. then 30 minutes 62° C.; versus control (no peptide)
Protocol: An in vitro polymerization assay was employed to screen the ability of a pharmacological chaperone to inhibit polymerization. […] In brief, M-AT or Z-AT was incubated at 37° C. for 4 hours, followed by 30 minutes at 62° C. The samples were then run on a Bis-Tris native gel and either blotted onto PVDF or detected with colloidal blue staining. Peptides at 1 mM were incubated with equal amounts (50 ng) of Z-AT for 4 hours at 37° C., followed by a 62° C. pulse for 30 minutes. Samples were separated on a 4-12% Bis-Tris native gel, blotted onto PVDF and the blot probed with a human specific antibody for alpha-1-antitrypsin. Additionally, in the case of samples from human plasma, a western blot was performed to assess the level of alpha-1-antitrypsin. polymerization. The inducible HeLa cell line retains Z-AT intracellularly as little Z-AT can be detected in the media. The Z-AT contained in lysates is apparently not processed to complex N-glycans as the molecular weight is slightly lower than M-AT purified from plasma, which is consistent with the findings of others. The intracellular material is endo H sensitive indicative of high mannose N-linked glycans.

[3] = target: T1, ZAT; test: Western blot of intracellular ZAT in ZAT inducible CHO cells; format: cell-based; parameters: expressed in transfected cells; host or cells: inducible serum-free CHO cells (tetracycline repressor control); conditions: for intracellular levels of ZAT, normalized densitometry: FIG. 14 graph
Protocol: Serum Free CHO and HeLa cells in which expression of Z-AT is under control of the tetracycline repressor were grown to confluence. To analyze the intra- and extracellular production of Z-AT, media was collected and cells were lysed in non-ionic detergent. Media and lysates were analyzed on a NuPAGE SDS gel followed by western blotting utilizing a human specific sheep anti-human alpha-1-antitrypsin polyclonal antibody.
Furthermore, two compounds, compounds V and VI, decrease intracellular levels of ZAT. These compounds are shown in Table 2, along with structural data for each compound. […] The levels of intracellular levels of ZAT are even lower when treated at the higher concentration. […] FIG. 13 depicts a western blot of intracellular levels of ZAT after 1mM treatment. […] FIG. 14 is a graph of showing intracellular levels of ZAT after 1mM treatment with compounds V and VI. […] FIG. 15 is an in vitro polymerization assay with compounds I-VI, as well as Ac-TTAI-NH2 (SEQ ID NO: 6), a vehicle control and non-treated alpha-1-antitrypsin. There is an increase in polymerization after treatment with the low-molecular weight compounds.

[4] = target: T1, ZAT; conditions: background studies; cited from earlier work; remark: listed apart in the source
[5] = target: alpha-1-antitrypsin (Homo sapiens, UniProt P01009, E366K); test: Alpha-1-antitrypsin elastase inhibition assay; format: biochemical
Excerpt: An elastase inhibition assay was developed to measure the effects of a test compound on the inhibitory activity of secreted Z-AT. In one embodiment, to detect elastase activity, bovine elastin was labeled with BODIPY, which causes the fluorescence of the conjugate to be quenched. This non-fluorescent substrate was digested by elastase to yield highly fluorescent fragments. Alternatively, the non-fluorescent substrate may be digested by another protease to yield fluorescent fragments. The activity of α-1-antitrypsin was monitored by measuring a decrease in fluorescent signal, indicative of the elastase inhibitory activity of α-1-antitrypsin. […] In one embodiment, the resulting fluorescence was monitored in a Perkin Elmer Victor V plate reader using absorption and emission filters for fluorescein […].
Additional cell lines to screen for pharmacologic chaperones and to identify surrogate markers of Z-AT expression were developed using an inducible promoter system. The inducible systems are useful for determining if particular chaperones need to be present prior to Z-AT translation in the endoplasmic reticulum to induce secretion of Z-AT and/or inhibit […]

[6] = target: T1, ZAT; test: Extracellular alpha-1-antitrypsin activity in media of ZAT inducible CHO cells; format: cell-based; parameters: expressed in transfected cells; host or cells: inducible serum-free CHO cells (tetracycline repressor control); conditions: FIG. 11, increasing treatment
Excerpt: An elastase inhibition assay was developed to measure the effects of a test compound on the inhibitory activity of secreted Z-AT. In one embodiment, to detect elastase activity, bovine elastin was labeled with BODIPY, which causes the fluorescence of the conjugate to be quenched. This non-fluorescent substrate was digested by elastase to yield highly fluorescent fragments. Alternatively, the non-fluorescent substrate may be digested by another protease to yield fluorescent fragments. The activity of α-1-antitrypsin was monitored by measuring a decrease in fluorescent signal, indicative of the elastase inhibitory activity of α-1-antitrypsin. A test compound was added to determine its effect on the elastase inhibitory activity of α-1-antitrypsin. In one embodiment, the resulting fluorescence was monitored in a Perkin Elmer Victor V plate reader using absorption and emission filters for fluorescein […].
Serum free CHO cell lines were developed, expressing M-AT, Z-AT (Glu342Lys) and the S mutation (Glu264Val), so that secreted alpha-1-antitrypsin activity could be measured directly from media without interference from bovine, alpha-1-antitrypsin introduced into the media from serum. Briefly, cDNA was isolated by PCR from first strand human liver cDNA using conventional cloning methods. […]

[7] = 100 μM, FIG. 9 western blot, ZAT inducible CHO cells
[8] = 1 mM, FIG. 10 western blot, ZAT inducible CHO cells, compared with 100 μM

T1 sequence (P01009 25-418 E366K): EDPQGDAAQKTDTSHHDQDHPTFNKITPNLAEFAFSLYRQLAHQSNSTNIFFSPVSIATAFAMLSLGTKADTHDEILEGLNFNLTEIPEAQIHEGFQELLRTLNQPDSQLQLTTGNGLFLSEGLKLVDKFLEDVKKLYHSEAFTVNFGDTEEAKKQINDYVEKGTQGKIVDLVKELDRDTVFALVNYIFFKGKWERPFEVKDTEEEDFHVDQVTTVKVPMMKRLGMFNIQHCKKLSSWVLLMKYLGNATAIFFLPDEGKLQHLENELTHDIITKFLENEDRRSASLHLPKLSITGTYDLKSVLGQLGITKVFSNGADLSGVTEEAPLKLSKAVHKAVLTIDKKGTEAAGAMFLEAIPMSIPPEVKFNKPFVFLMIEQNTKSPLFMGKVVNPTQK
alpha-1-antitrypsin, sequence (P01009 25-418 E366K): as above

Compound: Ac-TTAI-NH2
- in vitro polymerization of Z-AT [1]: block in vitro polymerization of Z-AT

Compound: CC(=O)NC(C(=O)NC(CO)C(=O)NC(C)C(=O)NC(C)C(N)=O)C(C)O (stereo not drawn) [Ac-TSAA-NH2, Ac-Thr-Ser-Ala-Ala-NH2] (Ac-TSAA-NH2; configuration not given here)
- alpha-1-antitrypsin polymerization [2]: significantly less alpha-1-antitrypsin polymerization

Compound: CC(=O)NC(C(=O)NC(CCC(=O)O)C(=O)NC(C)C(=O)NC(C)C(=O)NCC(N)=O)C(C)O (stereo not drawn) [Ac-TEAAG-NH2, Ac-Thr-Glu-Ala-Ala-Gly-NH2] (Ac-TEAAG-NH2; configuration not given here)
- alpha-1-antitrypsin polymerization [2]: significantly less alpha-1-antitrypsin polymerization

Compound: CC(=O)NC(C(=O)NC(CCC(=O)O)C(=O)NC(C)C(=O)NC(C)C(N)=O)C(C)O (stereo not drawn) [Ac-TEAA-NH2, Ac-Thr-Glu-Ala-Ala-NH2] (Ac-TEAA-NH2; configuration not given here)
- alpha-1-antitrypsin polymerization [2]: significantly less alpha-1-antitrypsin polymerization

- intracellular levels of ZAT [3, 7]: lower levels of ZAT
- intracellular levels of ZAT [3, 8]: even lower
- intracellular levels of ZAT, normalized densitometry ([3]; 1 mM): Levels are lower
Compound: COc1ccc(C(O)C(=O)NNC(=O)N[C@H](C(N)=O)C(C)O)cc1O (stereo partly drawn) [Compound VI]
- intracellular levels of ZAT ([3]; 1 mM, FIG. 13 western blot): significant reduction in ZAT levels intracellularly

Compound: O=C(O)CCCc1ccccc1 [4-phenylbutyric acid]
- secretion of Z-AT from cells [4]: can increase secretion of Z-AT from cells

Compound: O=C(O)CC(O)(CC(=O)O)C(=O)O [citrate]
- in vitro polymerization of Z-AT [1]: block in vitro polymerization of Z-AT

Compound: CC(=O)NC(C(=O)NC(CCC(=O)O)C(=O)NC(C(=O)NC(C)C(N)=O)C(C)C)C(C)O (stereo not drawn) [Ac-TEVA-NH2, Ac-Thr-Glu-Val-Ala-NH2] (Ac-TEVA-NH2; configuration not given here)
- inhibition of elastase activity by alpha-1-antitrypsin in the presence of peptide ([5]; FIG. 2): inhibits elastase activity significantly, in fact to a level comparable to that of wild type alpha-1-antitrypsin
- inhibition of alpha-1-antitrypsin activity by the peptide ([5]; at concentrations required to inhibit polymerization): does not inhibit alpha-1-antitrypsin activity
- alpha-1-antitrypsin polymerization [2]: significantly less alpha-1-antitrypsin polymerization

- intracellular levels of ZAT [3, 7]: lower levels of ZAT
- intracellular levels of ZAT [3, 8]: even lower
- intracellular levels of ZAT, normalized densitometry ([3]; 1 mM): Levels are lower
Compound: COc1ccc(C(O)C(=O)NNC(=O)N[C@@H](CO)C(N)=O)cc1O (stereo partly drawn) [Compound V]
- extracellular levels of ZAT and alpha-1-antitrypsin activity [6]: higher activity levels with higher treatment
- intracellular levels of ZAT ([3]; 1 mM, FIG. 13 western blot): significant reduction in ZAT levels intracellularly
